Measured values published in ChEMBL document CHEMBL4152218, “Novel hydrazide-hydrazone and amide substituted coumarin derivatives: Synthesis, cytotoxicity screening, microarray, radiolabeling and in vivo pharmacokinetic studies” (Eur J Med Chem, 2018).

Assays:
[1] = Selectivity index, ratio of IC50 for hTERT-RPE1 cells to IC50 for human CCRF-CEM cells; format: toxicity; settings: hTERT-RPE1 cells versus CCRF-CEM cells, read-out: Ratio IC50
[2] = Selectivity index, ratio of IC50 for hTERT-RPE1 cells to IC50 for human PANC1 cells; format: toxicity; settings: hTERT-RPE1 cells versus PANC1 cells, read-out: Ratio IC50
PANC-1 [3] = assay: Induction of apoptosis in human PANC1 cells assessed as increase in caspase-3/7 activity after 24 hrs by Caspase-Glo 3/7 luminescence assay; format: functional, cell-based
HepG2 [4] = assay: Antiproliferative activity against human HepG2 cells after 48 hrs by resazurin dye-based fluorescence assay; format: functional, cell-based; settings: HepG2, 48 h
[5] = Selectivity index, ratio of IC50 for hTERT-BJ cells to IC50 for human PANC1 cells; format: toxicity; settings: hTERT-BJ cells versus PANC1 cells, read-out: Ratio IC50
hTERT-BJ [6] = assay: Cytotoxicity against hTERT-BJ cells at 6.25 uM after 48 hrs by resazurin dye-based fluorescence assay relative to control; format: cell-based; settings: human
hTERT-BJ [7] = assay: Cytotoxicity against hTERT-BJ cells after 48 hrs by resazurin dye-based fluorescence assay; format: cell-based; settings: Homo sapiens
TERT-RPE1 [8] = assay: Cytotoxicity against hTERT-RPE1 cells at 25 uM after 48 hrs by resazurin dye-based fluorescence assay relative to control; format: cell-based; settings: human, tert-rpe1, 48 h
PANC-1 [9] = assay: Antiproliferative activity against human PANC1 cells after 48 hrs by resazurin dye-based fluorescence assay; format: functional, cell-based; settings: PANC-1, 48 h
[10] = Selectivity index, ratio of IC50 for hTERT-BJ cells to IC50 for human CCRF-CEM cells; format: toxicity; settings: hTERT-BJ cells versus CCRF-CEM cells, read-out: Ratio IC50
CCRF-CEM = assay: Antiproliferative activity against human CCRF-CEM cells after 48 hrs by resazurin dye-based fluorescence assay; format: functional, cell-based
TERT-RPE1 [11] = assay: Cytotoxicity against hTERT-RPE1 cells after 48 hrs by resazurin dye-based fluorescence assay; format: cell-based; settings: Homo sapiens, RPE-1, 48 h
TERT-RPE1 [12] = assay: Cytotoxicity against hTERT-RPE1 cells at 50 uM after 48 hrs by resazurin dye-based fluorescence assay relative to control; format: cell-based; settings: human, tert-rpe1, 48 h
TERT-RPE1 [13] = assay: Cytotoxicity against hTERT-RPE1 cells at 12.50 uM after 48 hrs by resazurin dye-based fluorescence assay relative to control; format: cell-based; settings: human, tert-rpe1, 48 h, 12.5 µM
hTERT-BJ [14] = assay: Cytotoxicity against hTERT-BJ cells at 25 uM after 48 hrs by resazurin dye-based fluorescence assay relative to control; format: cell-based; settings: human
TERT-RPE1 [15] = assay: Cytotoxicity against hTERT-RPE1 cells at 6.25 uM after 48 hrs by resazurin dye-based fluorescence assay relative to control; format: cell-based; settings: human, tert-rpe1, 48 h
hTERT-BJ [16] = assay: Cytotoxicity against hTERT-BJ cells at 50 uM after 48 hrs by resazurin dye-based fluorescence assay relative to control; format: cell-based; settings: human
hTERT-BJ [17] = assay: Cytotoxicity against hTERT-BJ cells at 12.50 uM after 48 hrs by resazurin dye-based fluorescence assay relative to control; format: cell-based; settings: human, 12.5 µM
[18] = Selectivity index, ratio of IC50 for hTERT-RPE1 cells to IC50 for human HepG2 cells; format: toxicity; settings: hTERT-RPE1 cells versus HepG2 cells, read-out: Ratio IC50
HepG2 [19] = assay: Induction of apoptosis in human HepG2 cells assessed as increase in caspase-3/7 activity after 24 hrs by Caspase-Glo 3/7 luminescence assay; format: functional, cell-based
[20] = Selectivity index, ratio of IC50 for hTERT-BJ cells to IC50 for human HepG2 cells; format: toxicity; settings: hTERT-BJ cells versus HepG2 cells, read-out: Ratio IC50

| Compound | selectivity ratio [1] | selectivity ratio [2] | Activity (PANC-1 [3]) | IC50 (HepG2 [4]) [µM] | selectivity ratio [5] | Activity (hTERT-BJ [6]) [%] | IC50 (hTERT-BJ [7]) [µM] | Activity (TERT-RPE1 [8]) [%] | IC50 (PANC-1 [9]) [µM] | selectivity ratio [10] | IC50 (CCRF-CEM) [µM] | IC50 (TERT-RPE1 [11]) [µM] | Activity (TERT-RPE1 [12]) [%] | Activity (TERT-RPE1 [13]) [%] | Activity (hTERT-BJ [14]) [%] | Activity (TERT-RPE1 [15]) [%] | Activity (hTERT-BJ [16]) [%] | Activity (hTERT-BJ [17]) [%] | selectivity ratio [18] | selectivity ratio [20] | further results |
| --- | --- | --- | --- | --- | --- | --- | --- | --- | --- | --- | --- | --- | --- | --- | --- | --- | --- | --- | --- | --- | --- |
| O=C(N/N=C/c1ccncc1)c1cc2cc(Br)ccc2oc1=O | > 7.88 | > 1.94 | Dose-dependent effect | 4.89 | > 1.94 | 0.6 | > 50 | 34.5 | 25.7 | > 7.88 | 6.34 | > 50 | 39.96 | 17.16 | 1.37 | 9.63 | 2.52 | 0.2 | > 10.2 | > 10.2 | Activity (HepG2 [19]): Dose-dependent effect |
| O=C(N/N=C/c1cccnc1)c1cc2ccccc2oc1=O | > 5.05 | > 3.27 | Dose-dependent effect | 15.9 | > 3.27 | 0.21 | > 50 | 9.89 | 15.3 | > 5.05 | 9.9 | > 50 | 14.75 | 8.28 | 5.22 | 7.46 | 2.6 | 0.97 | > 3.14 | > 3.14 | Activity (HepG2 [19]): Dose-dependent effect |
| Cc1noc(NS(=O)(=O)c2ccc(NC(=O)c3cc4ccc(O)cc4oc3=O)cc2)c1C | > 2.33 | > 3.09 | – | 38.8 | > 3.09 | 1.17 | > 50 | 5.92 | 16.2 | > 2.33 | 21.5 | > 50 | 5.78 | 5.89 | 3.63 | 0.99 | 5 | 3.52 | > 1.29 | > 1.29 | – |
| Cc1noc(NS(=O)(=O)c2ccc(NC(=O)c3cc4cc([N+](=O)[O-])ccc4oc3=O)cc2)c1C | > 3.49 | > 4.19 | – | 15 | > 4.19 | 2.53 | > 50 | 4.79 | 11.9 | > 3.49 | 14.3 | > 50 | 4.06 | 2.5 | 7.18 | 1.27 | 10.27 | 4.43 | > 3.34 | > 3.34 | – |
| O=C(N/N=C/c1ccncc1)c1cc2cc([N+](=O)[O-])ccc2oc1=O | > 3.86 | > 1.92 | – | 15.8 | > 1.92 | 0.78 | > 50 | 11.23 | 26.1 | > 3.86 | 13 | > 50 | 13.97 | 10.1 | 6.48 | 6.97 | 7.55 | 5.5 | > 3.15 | > 3.15 | – |
| Cc1noc(NS(=O)(=O)c2ccc(NC(=O)c3cc4ccccc4oc3=O)cc2)c1C | > 1.88 | > 2.51 | – | 24 | > 2.51 | 8.49 | > 50 | 33.32 | 19.9 | > 1.88 | 26.6 | > 50 | 47.61 | 13.72 | 15.88 | 9.28 | 26.66 | 10.4 | > 2.09 | > 2.09 | – |
| CCOc1ccc2nc(Cl)c(/C=N/NC(=O)c3cc4cc([N+](=O)[O-])ccc4oc3=O)cc2c1 | > 3.19 | > 4.75 | Dose-dependent effect | 18.1 | > 4.75 | 1.58 | > 50 | 5.6 | 10.5 | > 3.19 | 15.7 | > 50 | 10.48 | 3.92 | 2.13 | 1.74 | 3.33 | 1.38 | > 2.77 | > 2.77 | Activity (HepG2 [19]): Dose-dependent effect |
